One data set has as its system Haemonchus contortus. Kind of data set: Activity against Haemonchus contortus (LD99). To be noted: dose required to kill 99% of the sample of Haemonchus contortus. From the text: (§1) Exemplified compounds of Formula 1 are listed by Tables 1a and 1b, above. The activity of these compounds against Haemonchus contortus and cat fleas (Ctenocephalides felis) is summarized by Table 7, below.
The LD99 value is the dose, expressed as μg/ml, that was required to kill 99% of the sample of Haemonchus contortus.

Data set [1] has as its system cat fleas (Ctenocephalides felis). Nature of the data set: Contact activity against cat fleas (LC50, % kill). Particulars: for % Kill: percent of a sample of cat fleas killed at a concentration of 1.26 μg/cm^2; for pest or weed control at 1.26 µg/cm2, 1.26 µg/cm2: Ctenocephalides felis, read-out: % Kill; for LC50: concentration required to kill 50% of the sample of cat fleas on contact.
Excerpt: as §1

A value given as a limit tells only on which side of the number the result lay.

Turning to `N#C/C(=C\c1ccc[nH]1)c1cccc(Cl)c1` [Compound 1], in the data set with Haemonchus contortus, the LD99 stood at 0.75 µg/mL. Moreover, the “% Kill” value in data set [1] is reported as 28%.
Molecule `N#C/C(=C\c1ccc[nH]1)c1ccc(Cl)cc1` [Compound 2, (Z)-2-(4-Chloro-phenyl)-3-(1H-pyrrol-2-yl)acrylonitrile] registered an EC99 in the data set with Haemonchus contortus of 0.406 µg/mL. In addition, in data set [1], the pest or weed control at 1.26 µg/cm2, 1.26 µg/cm2 turned out to be 95% and the LC50 came to 0.17 μg/cm^2.
With `N#C/C(=C\c1cc(Cl)c(Cl)[nH]1)c1ccc(Cl)cc1` [Compound 3], the LD99 with Haemonchus contortus is 3 µg/mL. The “% Kill” value in data set [1] was 15%.
As to `N#C/C(=C\c1ccc[nH]1)c1ccc(C(F)(F)F)cc1` [Compound 4], the LD99 in the data set with Haemonchus contortus stood at 0.625 µg/mL. For the same molecule, in data set [1], the “% Kill” value is given as 20%.
On to `Cn1cccc1/C=C(\C#N)c1cccc(Cl)c1` [Compound 5], for which, in the data set on Haemonchus contortus, the LD99 came out at 3 µg/mL. Moreover, in data set [1], the “% Kill” value was found to be 6%.
`Cn1cccc1/C=C(\C#N)c1ccc(Cl)cc1` [Compound 6, (Z)-2-(4-Chloro-phenyl)-3-(1-methyl-1H-pyrrol-2-yl)acrylonitrile] yielded an EC99 in the data set with Haemonchus contortus of 1.88 µg/mL. The pest or weed control at 1.26 µg/cm2, 1.26 µg/cm2 in data set [1] is 13%.
The matching figures for `CCOCn1cccc1/C=C(\C#N)c1ccc(Cl)cc1` [Compound 7, (Z)-2-(4-Chloro-phenyl)-3-(1-ethoxymethyl-1H-pyrrol-2-yl)acrylonitrile]: 5.5 µg/mL and 6%.
On to `CCOCn1cccc1/C=C(\C#N)c1ccc(C(F)(F)F)cc1` [Compound 8], for which the LD99 in the data set on Haemonchus contortus was 5 µg/mL. Further, the “% Kill” value in data set [1] is on record as 6%.
As to `N#C/C(=C\c1ccc[nH]1)c1cccc(C(F)(F)F)c1` [Compound 9], the LD99 with Haemonchus contortus turned out to be 0.938 µg/mL. For the same molecule, in data set [1], the LC50 amounted to 9.94 μg/cm^2 and the “% Kill” value is on record as 56%.
The like results for `N#C/C(=C\c1ccc[nH]1)c1cccc(F)c1` [Compound 10] were, in that order, 1.625 µg/mL, 0.78 μg/cm^2 and 78%.
For `N#C/C(=C\c1cc(Br)c[nH]1)c1ccc(C(F)(F)F)cc1` [Compound 11], the LD99 entry in the data set on Haemonchus contortus was “— (the symbol ‘—’ indicates tested but inactive up to 15 μg/ml)”. For the same molecule, the “% Kill” value in data set [1] is 18%.
In the data set on Haemonchus contortus, `N#C/C(=C\c1cc(Br)c[nH]1)c1cccc(C(F)(F)F)c1` [Compound 12] returned an LD99 of 3.25 µg/mL.
As for `N#C/C(=C\c1ccc[nH]1)c1ccc(Cl)cc1Cl` [Compound 13], the LD99 in the data set on Haemonchus contortus turned out to be 3 µg/mL. For the same molecule, the “% Kill” value in data set [1] is 8%.
In turn, `COc1ccc(/C(C#N)=C/c2ccc[nH]2)cc1` [Compound 14] gave an LD99 with Haemonchus contortus of 1.5 µg/mL. For the same molecule, the “% Kill” value in data set [1] is on record as 31%.
Molecule `CC(C)(C)c1ccc(/C(C#N)=C/c2ccc[nH]2)cc1` [Compound 15] had an LD99 with Haemonchus contortus of 3.25 µg/mL. Besides, in data set [1], the LC50 stood at 0.478 μg/cm^2 and the “% Kill” value turned out to be 87%.
In the data set on Haemonchus contortus, `Cc1ccccc1/C(C#N)=C/c1ccc[nH]1` [Compound 16, (Z)-2-(2-Methyl-phenyl)-3-(1H-pyrrol-2-yl)acrylonitrile] yielded an EC99 of 3.75 µg/mL. Moreover, in data set [1], the pest or weed control at 1.26 µg/cm2, 1.26 µg/cm2 amounted to 100% and the LC50 was 0.076 μg/cm^2.
In the data set on Haemonchus contortus, `N#C/C(=C\c1ccc[nH]1)c1ccccc1` [Compound 17] yielded an LD99 of 0.469 µg/mL. Further, in data set [1], the LC50 amounted to 0.259 μg/cm^2 and the “% Kill” value amounted to 98%.
In the data set on Haemonchus contortus, `N#C/C(=C\c1ccc[nH]1)c1ccc(-c2ccccc2)cc1` [Compound 18] displayed an LD99 of 7.5 µg/mL. Further, the “% Kill” value in data set [1] was found to be 46%.
In the data set with Haemonchus contortus, `N#C/C(=C\c1ccc[nH]1)c1ccc2c(c1)OCO2` [Compound 19, 2-(3,4-methylenedioxy)phenyl-3-(1H-pyrrol-2-yl)acrylonitrile] had an EC99 of 6 µg/mL. For the same molecule, in data set [1], the pest or weed control at 1.26 µg/cm2, 1.26 µg/cm2 was 26%.
Take `N#C/C(=C\c1ccc[nH]1)c1ccc(C#N)cc1` [Compound 20]: the LD99 with Haemonchus contortus is 10 µg/mL. Further, the “% Kill” value in data set [1] is listed as 44%.
The like results for `Cn1cccc1/C=C(\C#N)c1ccc(C(F)(F)F)cc1` [Compound 21] were, in that order, “— (the symbol ‘—’ indicates tested but inactive up to 15 μg/ml)” and 24%.
The like results for `Cn1cccc1/C=C(\C#N)c1cccc(C(F)(F)F)c1` [Compound 22] were, in that order, 5.5 µg/mL and 19%.
The matching figures for `N#C/C(=C\c1cc(Br)c[nH]1)c1ccc(Cl)cc1` [Compound 23]: 0.469 µg/mL and 23%.
In the data set with Haemonchus contortus, `N#C/C(=C\c1ccc[nH]1)c1ccccc1Cl` [Compound 24] returned an LD99 of 2.75 µg/mL. The “% Kill” value in data set [1] is on record as 19%.
As for `N#C/C(=C\c1ccc[nH]1)c1ccccc1F` [Compound 25], the LD99 in the data set with Haemonchus contortus came to 2.5 µg/mL. In data set [1], the LC50 is recorded as 0.594 μg/cm^2 and the “% Kill” value amounted to 92%.
In the data set with Haemonchus contortus, `Cc1ccc(/C(C#N)=C/c2ccc[nH]2)cc1` [Compound 26] showed an LD99 of 0.938 µg/mL. In data set [1], the “% Kill” value is given as 69%.
Molecule `N#C/C(=C\c1ccc[nH]1)c1ccc(Cl)c(Cl)c1` [Compound 27] returned an LD99 in the data set with Haemonchus contortus of 0.406 µg/mL. The “% Kill” value in data set [1] is 78%.
On to `N#C/C(=C\c1ccc[nH]1)c1ccc(F)cc1` [Compound 28], for which, in the data set on Haemonchus contortus, the LD99 is 2.5 µg/mL. Besides, in data set [1], the LC50 came out at 0.295 μg/cm^2 and the “% Kill” value was found to be 19%.
As to `N#C/C(=C\c1cc(Br)c[nH]1)c1ccc(Cl)c(Cl)c1` [Compound 29], in the data set with Haemonchus contortus, the LD99 was 5 µg/mL. Further, the “% Kill” value in data set [1] amounted to 15%.
The matching figures for `N#C/C(=C\c1cc(Br)c[nH]1)c1ccc(F)cc1` [Compound 30]: 11 µg/mL and 18%.
The like results for `N#C/C(=C\c1cc(Br)c[nH]1)c1cccc(F)c1` [Compound 31] were, in that order, 1.75 µg/mL and 27%.
In turn, `N#C/C(=C\c1ccc[nH]1)c1cccc2ccccc12` [Compound 32, 2-(1-naphthyl)-3-(1H-pyrrol-2-yl)acrylonitrile] displayed an EC99 with Haemonchus contortus of 0.234 µg/mL. The pest or weed control at 1.26 µg/cm2, 1.26 µg/cm2 in data set [1] came out at 42%.
For `N#C/C(=C\c1ccc[nH]1)c1ccc(Br)cc1` [Compound 33], the LD99 with Haemonchus contortus was 3 µg/mL. The “% Kill” value in data set [1] came out at 15%.
Molecule `N#CC(=Cc1cc(Br)c[nH]1)c1cccc2ccccc12` [Compound 34, 2-(1-naphthyl)-3-(4-bromo-1H-pyrrol-2-yl)acrylonitrile] registered an EC99 in the data set on Haemonchus contortus of 0.813 µg/mL. In data set [1], the pest or weed control at 1.26 µg/cm2, 1.26 µg/cm2 came to 21%.
With `N#C/C(=C\c1ccc[nH]1)c1ccccc1` [Compound 35], the LD99 result in the data set with Haemonchus contortus is “— (the symbol ‘—’ indicates tested but inactive up to 15 μg/ml)”. Also, in data set [1], the “% Kill” value is given as 21%.
The matching figures for `N#C/C(=C\c1ccc[nH]1)c1ccc(I)cc1` [Compound 36]: 0.688 µg/mL and 14%.
The matching figures for `N#C/C(=C\c1ccc[nH]1)c1ccccc1C#N` [Compound 37]: “— (the symbol ‘—’ indicates tested but inactive up to 15 μg/ml)” and 11%.
With `CCOCn1cccc1/C=C(\C#N)c1ccc(F)cc1` [Compound 49], the LD99 in the data set with Haemonchus contortus was found to be 14 µg/mL.
Regarding `CCOCn1cccc1/C=C(\C#N)c1ccccc1C#N` [Compound 50], the LD99 entry with Haemonchus contortus was “— (the symbol ‘—’ indicates tested but inactive up to 15 μg/ml)”.
`CCOCn1cccc1/C=C(\C#N)c1ccc(Br)cc1` [Compound 51] had an LD99 in the data set with Haemonchus contortus of 7.5 µg/mL.
Still for that read-out and setting: in the case of `CCOCn1cccc1/C=C(\C#N)c1c(Cl)cccc1Cl` [Compound 52] it was “— (the symbol ‘—’ indicates tested but inactive up to 15 μg/ml)”.
In the data set on Haemonchus contortus, `CCOCn1cccc1/C=C(\C#N)c1ccc2ccccc2c1` [Compound 53, 2-(2-naphthyl)-3-(1-ethoxymethyl-1H-pyrrol-2-yl)acrylonitrile] yielded an EC99 of over 15 µg/mL.
Take `CCOCn1cccc1/C=C(\C#N)c1ccccc1Cl` [Compound 54]: the LD99 with Haemonchus contortus is 7 µg/mL.
Still for that read-out and setting: then `CCOCn1cccc1/C=C(\C#N)c1ccc(Cl)c(Cl)c1` [Compound 56], with 6.5 µg/mL.
As to `CCOCn1cccc1/C=C(\C#N)c1ccccc1C(F)(F)F` [Compound 57], the LD99 entry in the data set on Haemonchus contortus is “— (the symbol ‘—’ indicates tested but inactive up to 15 μg/ml)”.
Still for that read-out and setting: then `CCOCn1cccc1/C=C(\C#N)c1cccc(Br)c1` [Compound 58], with “— (the symbol ‘—’ indicates tested but inactive up to 15 μg/ml)”; and `CCOCn1cccc1/C=C(\C#N)c1cc(C(F)(F)F)cc(C(F)(F)F)c1` [Compound 59], with “— (the symbol ‘—’ indicates tested but inactive up to 15 μg/ml)”.
The same measure, in the same setting: then `CCOCn1cccc1/C=C(\C#N)c1c(F)cccc1F` [Compound 61], with “— (the symbol ‘—’ indicates tested but inactive up to 15 μg/ml)”; and `CCOCn1cccc1/C=C(\C#N)c1ccc(F)c(F)c1` [Compound 62], with 6 µg/mL.
`CCOCn1cccc1/C=C(\C#N)c1cccc(C)c1` [Compound 63] came in with an LD99 in the data set on Haemonchus contortus of 13 µg/mL.
Take `CCOCn1cccc1/C=C(\C#N)c1cccc2ccccc12` [Compound 65, 2-(1-naphthyl)-3-(1-ethoxymethyl-1H-pyrrol-2-yl)acrylonitrile]: the EC99 with Haemonchus contortus is over 15 µg/mL.
`CC(C)=CCn1cccc1/C=C(\C#N)c1ccc(Cl)cc1` [Compound 80, (Z)-2-(4-chlorophenyl)-3-(1-(3-methylbut-2-enyl)-1H-pyrrol-2-yl)acrylonitrile]: the EC99 with Haemonchus contortus is over 15 µg/mL.
`Cc1ccc(S(=O)(=O)n2cccc2/C=C(\C#N)c2ccc(Cl)cc2)cc1` [Compound 83] had an LD99 with Haemonchus contortus of 12 µg/mL.
Consider `N#C/C(=C\c1ccc[nH]1)c1ccccc1-c1ccccc1` [Compound 89], for which the “% Kill” value in data set [1] came to 2%.
Still for that read-out and setting: in the case of `N#C/C(=C\c1ccc[nH]1)c1ccccc1C(F)(F)F` [Compound 90] it was 14%; in that of `COc1ccccc1/C(C#N)=C/c1ccc[nH]1` [Compound 91], 9%.

The EC99 is the concentration needed for an effect of 99%.

For the origin of these results see US7705038B2, “Control of parasites in animals by the use of parasiticidal 2-phenyl-3-(1H-pyrrol-2-yl)acrylonitrile derivatives” (Intervet, Inc., priority 2004, dated 2010).
